# Results taken from the METLIN SMRT retention time set (Domingo-Almenara et al. 2019).
# Assay: gradient 5% acetonitrile 3 min, to 50% in 2 min, to 85% in 15 min, held 3 min, 100 µL/min
# Conditions: column: Zorbax Extend-C18 2.1 x 50 mm; eluents: water / acetonitrile, 0.1% formic acid
# Outline: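 Over 3 months, pure standards in mixtures of ~100 molecules were run by HPLC coupled to a quadrupole time-of-flight mass spectrometer in positive and negative ionization mode. The column was a Zorbax Extend-C18 (2.1 × 50 mm, 1.8 μm) at 100 μL/min, eluted with water and acetonitrile each holding 0.1% formic acid, with 40 μL dead and 900 μL dwell volumes. Retention time was determined from adduct peaks chosen by software and checked manually.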
row,Structure (SMILES),RP-LC retention time [s]
1,COc1ccc(C2(C(=O)N3CCn4ccnc4C3C(C)C)CC2)cc1 (centres undefined),568
2,O=c1cc(N2CCOCC2)oc2c(-c3cccc4c3sc3ccccc34)cccc12,1190
3,Cc1ccccc1Nc1c(-c2ccc(Cl)cc2Cl)nc2cnccn12,1030
4,Cc1nc(-c2csc(S(=O)(=O)N3CCCC(C(=O)Nc4c(C)cccc4C)C3)c2)no1 (centres undefined),1060
5,Cc1ccc(NC(=O)C2CC(=O)N(c3n[nH]c4cc(Br)ccc34)C2)cc1 (centres undefined),839
6,CCOC(=O)c1[nH]c(C)c(CCC(=O)N2CCC(C(=O)NCCCN3CCCC3=O)CC2)c1C,626
7,COc1ccc(C(=O)Nc2cccn3nc(C4CCC4)nc23)cc1,905
8,Cc1cnn(CCC(=O)NC2CCN(c3ccc(=O)n(CC4CC4)n3)C2)c1 (centres undefined),654
9,COc1ccccc1CCC(=O)N(C)C[C@@]12CCC[C@H]1N(C)C(=O)CC2,776
10,COc1ccc(C2CC(=O)N(c3ccc(F)cc3)C(=O)C2)cc1OC,801
11,Cc1nnc2sc(-c3cccs3)nn2c1=O,664
12,Cc1ccc(S(=O)(=O)NCCn2c(C)cnc2C2CCC2)c(C)c1,675
13,COC(=O)C1=C(C(=O)OC)SC2(S1)C(C(=O)OC)=C(C(=O)OC)Sc1c2ssc1=O,977
14,O=C(Nc1cccc(F)c1)C1CCN(S(=O)(=O)c2cc(C(=O)N3CCCCCC3)cs2)CC1,939
15,CN(C)c1ccc(O)c2c1C[C@H]1C[C@H]3[C@H](N(C)C)C(=O)C(C(N)=O)=C(O)[C@@]3(O)C(=O)C1=C2O,596
16,CC(C)n1cnnc1CC1CN(C(=O)Nc2cc(F)cc(F)c2)C1,667
17,O=C(Cn1cc(S(=O)(=O)N2CCOCC2)ccc1=O)N1CCCc2ccccc21,750
18,Cc1ccccc1NC(=O)N1CCCC(Cn2cnc3cccnc32)C1 (centres undefined),659
19,O=C(NCCC1=CCCCC1)C1CCCN(c2ccc3nncn3n2)C1 (centres undefined),770
20,CC1=C(C(=O)Nc2cc3cn[nH]c3cc2F)C(c2ccc(C(F)(F)F)cc2)CC(=O)N1 (centres undefined),734
21,CCCCOc1ccc(-c2nc(C3CC(=O)N(c4ccc(OC)cc4)C3)no2)cc1 (centres undefined),1200
22,COCc1nc2cccnc2n1C1CCN(C(=O)Nc2cc(OC)cc(OC)c2)CC1,696
23,Cc1cc(C)n(Cc2nc(-c3ccc(NC(=O)C4CCCCC4)cc3)oc2C)n1,1000

row,Structure (SMILES),RP-LC retention time [s]
1,Cc1nn(-c2ccccc2)c(C)c1S(=O)(=O)N1CCC(C(=O)NCc2ccccc2)CC1,886
2,CCC1CCCCN1C(=O)c1cnc2nc(C)ccc2c1Nc1ccc(OC)cc1 (centres undefined),665
3,Cc1cccc(-n2c(=O)c3c(cc(C)n3C)n(CC(=O)Nc3c(C)cccc3C)c2=O)c1,906
4,CCOc1ccc(CNC(=O)CN2CCN(Cc3ccc(F)cc3)C2=O)cc1OC,751
5,Nc1cc(C2CCN(C(=O)c3cncc(Br)c3)CC2)no1,620
6,CC(C)c1nc(C2CN(C(=O)Nc3ccc(F)cc3)C2)n(C)n1,672
7,CCC1CCCCN1C(=O)c1cnc2nc(C)ccc2c1Nc1cc(OC)ccc1OC (centres undefined),689
8,Cc1ccccc1CNC1=NCCNC12CCN(S(=O)(=O)c1ccccc1C)CC2,729
9,CCOC(=O)c1c(S(=O)(=O)N2CCC(C(=O)Nc3ccc(F)cc3F)CC2)c(C)n(CC)c1C,895
10,Cc1ccc(F)c(-n2nnc(C(=O)O)c2C)c1,689
11,O=C(O)c1nnn(-c2cccc(Cl)c2)c1-c1cccnc1,680
12,CCn1ncc(NC(=O)c2cccc(OC)c2)c(N2CCOCC2)c1=O,788
13,COC(=O)c1ccccc1NC(=O)N1CCc2nc[nH]c2C1,596
14,CC1CCCN(c2nccnc2SCC(=O)Nc2ccc(F)cc2Cl)C1 (centres undefined),1300
15,CC(C)n1nc(CNC(=O)Cc2ccsc2)c2ccccc21,850
16,COC(=O)C1=CN(C2CC2)c2cc(N3CCC4(CC3)OCCO4)c(F)cc2S1(=O)=O,806
17,CCOC(=O)c1ccccc1NC(=O)NCCn1c(C(F)(F)F)nc2cccnc21,917
18,CC(=O)c1cccc(NC(=O)c2cnc(-c3ccccc3)nc2-c2ccncc2)c1,800
19,O=C(Cc1csc(-n2cccc2)n1)N1CCN(c2ccccn2)CC1,623
20,O=C(NCc1cccc(Cl)c1)C1CCCN(c2ncnc3c2nc2n3CCCCC2)C1 (centres undefined),804
21,COc1ccc2[nH]c(-c3ccccc3)c(CCNC(C)=O)c2c1,832
22,COc1ccc(NC(=O)N2CCC(c3nc(C(=O)N4CCCCC4)c(C)o3)CC2)cc1F,784
23,O=S(=O)(NCCCN1CCOC(c2ccccc2)C1)c1ccccc1Cl (centres undefined),576

row,Structure (SMILES),RP-LC retention time [s]
1,Cc1oc(-c2[nH]ncc2C(=O)N(C)C)cc1S(=O)(=O)N1CCC(C)CC1,710
2,CCc1ccc(NC(=O)C2CCCN(S(=O)(=O)c3cn(CC)cn3)C2)cc1 (centres undefined),753
3,CCCCC(=O)N1CCN(c2nc(C)cc(NCC)n2)CC1,618
4,CCn1c(CNC(=O)C2CCC2)nc2c1CN(C(=O)c1ccc(OC)cc1)CC2,612
5,Cc1cccc(NC(=O)Cc2c(C)n(C)c3nc(-c4ccccc4)nn3c2=O)c1,824
6,CCCOc1ccc(C2NC(=O)NC(C)=C2C(=O)OC2CCCC2)cc1OC (centres undefined),857
7,CC(C)C(=O)Nc1ccc(C2(C(=O)NCc3ccco3)CCCCC2)cc1,889
8,CC(C)n1cnc2cc(CNC(=O)c3nn(C)c4ccccc34)ccc21,629
9,CC(C)n1cc(S(=O)(=O)Nc2ccc(Cl)cc2F)c2cccnc21,950
10,Cc1nn2c(CNC(=O)C3CCN(C(=O)c4ccccc4)CC3)c(C)nc2s1,584
11,O=C(NC1CCN(c2cc(-c3cccs3)[nH]n2)C1)c1ccccc1Cl (centres undefined),701
12,O=c1n(Cc2ccc3c(c2)OCO3)nc2c(S(=O)(=O)N3CCCCC3)cccn12,828
13,O=C(Cc1ccsc1)N1CCCC1c1nc(-c2ccc(F)cc2F)no1 (centres undefined),922
14,COc1ccc(OCc2nc(-c3ccc(S(=O)(=O)N4CCOCC4)cc3)no2)cc1,1000
15,CCCc1cc(N2CCN(c3ccccn3)CC2)n2nc3nc(C)cc(C)c3c2n1,615
16,Cc1ccc(-c2nnc(Cc3nc(-c4ccccn4)no3)o2)cc1F,822
17,CC(=O)Nc1ccc2c(c1)CN(C(=O)c1ccccc1Cl)C(C(=O)N1CCCC1)C2 (centres undefined),657
18,Cc1csc(-c2cc(S(=O)(=O)N3CCCCC3)cn2CC(=O)N2CCCCC2)n1,1020
19,COc1ccc(-c2nc(CN3C(=O)C(O)(c4ccccc4)c4ccccc43)c(C)o2)cc1 (centres undefined),1040
20,Cc1ncsc1C1N(C2CCN(C(=O)Nc3ccccc3)CC2)C(=O)C12CCCC2 (centres undefined),749
21,O=C(NCC1CC(=O)N(c2ccc3c(c2)OCO3)C1)Nc1ccccc1C(F)(F)F (centres undefined),717
22,CC(C)c1nnc2n1CCN(C(=O)c1ccc(Cl)s1)C2,661
23,O=C(NC(Cc1c[nH]c2ccccc12)C(=O)O)c1ccc(Cl)cc1 (centres undefined),724

row,Structure (SMILES),RP-LC retention time [s]
1,CCCN1C(=O)COc2ccc(-c3csc(NC(=O)C(C)(C)C)n3)cc21,1010
2,O=C(c1cn2c(n1)CCCC2)N(Cc1ccccc1)Cc1ccco1,668
3,CC(C)CCNC(=O)C1(C)CN(S(=O)(=O)c2ccccc2)CC(=O)N1Cc1ccc(F)cc1 (centres undefined),978
4,CCN1CCCn2cc(S(=O)(=O)NCCCc3ccccc3)cc2C1=O,785
5,CCNC(=O)N1CCc2nc(OCC)ccc2C1,606
6,CCOc1ccc(-c2ccc(N3CCN(C(=O)c4ccc5ncsc5c4)CC3)nn2)cc1,629
7,O=C(NC1CC1)C1CCCN(C(=O)c2ccoc2)C1 (centres undefined),584
8,CCOCCCNC(=O)C1(C)Cn2c(ccc2-c2ccco2)C(=O)N1c1ccc(OC)cc1 (centres undefined),791
9,Cn1c(Cn2c(=O)sc3ccccc32)nnc1SCC(=O)NCC1CCCO1 (centres undefined),608
10,CCCc1ccc(S(=O)(=O)N2CCN(c3cnn4c(C5CC5)nnc4c3)CC2)cc1,856
11,CCOc1ccc(Cl)cc1S(=O)(=O)N1CCC(C(=O)Nc2ccc3c(c2)OCCO3)CC1,1150
12,CCSc1ccc(-c2cccc(NC(=O)CC)c2)nn1,787
13,COc1cccc(CNC(=O)C2CCN(S(=O)(=O)c3ccc4c(c3)CCCC(=O)N4)CC2)c1,713
14,O=C(NCc1ccc2c(c1)OCO2)c1ccc(S(=O)(=O)NCC2CCCO2)cc1 (centres undefined),688
15,COc1ccc(C2CCCN2C(=O)Cn2nc(C(F)(F)F)cc2C)cc1 (centres undefined),953
16,Cc1nn(-c2cc(N3CCCC3)ncn2)c(C)c1CCC(=O)N1CCN(c2ccccn2)CC1,587
17,COC(=O)CNC(=O)N1CCCCCC1c1ccc(Cl)cc1 (centres undefined),870
18,CC1CCN(Cc2csc(N3CCN(C(=O)COc4ccccc4)CC3)n2)CC1,653
19,COc1ccc2nc(C(=O)NCc3ccc(F)cc3Cl)cn2n1,872
20,COc1ccc(OC)c(NC(=O)N2CCCC(Cn3cnc4cccnc43)C2)c1 (centres undefined),682
